The NIST ThermoML archive (doi:10.1016/j.jct.2004.10.011)

Assay: xn = mol fraction of the nth substance listed
Settings: Liquid, Vibrating tube method

CCC(=O)c1ccccc1 [ethyl phenyl ketone] + Cc1ccccc1
mass density [kg/m3]
Settings	x2 = 0	x2 = 0.1048	x2 = 0.2025	x2 = 0.3006	x2 = 0.3991	x2 = 0.4998	x2 = 0.6004	x2 = 0.7036	x2 = 0.8028	x2 = 0.902
298.15 K, 100 kPa	1005.3	993.5	982.2	970.2	957.5	943.76	929.02	913.4	897.3	880.1
298.15 K, 2130 kPa	1006.4	994.6	983.3	971.3	958.6	944.95	930.27	914.7	898.6	881.5
298.15 K, 4150 kPa	1007.5	995.8	984.5	972.6	959.9	946.25	931.61	916	900	882.9
298.15 K, 6180 kPa	1008.7	996.9	985.7	973.8	961.2	947.55	932.93	917.4	901.4	884.4
298.15 K, 8210 kPa	1009.8	998.1	986.9	975	962.4	948.81	934.23	918.7	902.8	885.8
298.15 K, 10230 kPa	1010.9	999.2	988	976.1	963.6	950.05	935.53	920	904.2	887.2
298.15 K, 11250 kPa	1011.5	999.8	988.6	976.7	964.2	950.67	936.16	920.7	904.8	887.9
298.15 K, 12260 kPa	1012.1	1000.3	989.2	977.3	964.8	951.26	936.78	921.3	905.5	888.6
298.15 K, 14290 kPa	1013.2	1001.5	990.3	978.5	966	952.5	938.05	922.6	906.8	890
298.15 K, 16310 kPa	1014.3	1002.6	991.4	979.6	967.1	953.69	939.26	923.8	908.1	891.3
298.15 K, 18340 kPa	1015.3	1003.7	992.5	980.7	968.3	954.88	940.49	925.1	909.4	892.6
298.15 K, 20370 kPa	1016.4	1004.8	993.6	981.8	969.4	956.04	941.68	926.3	910.7	893.9
298.15 K, 22390 kPa	1017.5	1005.8	994.7	983	970.5	957.19	942.87	927.5	911.9	895.2
298.15 K, 24420 kPa	1018.5	1006.9	995.8	984	971.7	958.35	944.05	928.7	913.1	896.5
298.15 K, 26450 kPa	1019.5	1007.9	996.8	985.1	972.7	959.45	945.21	929.9	914.3	897.8
298.15 K, 28470 kPa	1020.5	1009	997.9	986.2	973.8	960.58	946.36	931.1	915.5	899
298.15 K, 29490 kPa	1021	1009.5	998.4	986.7	974.3	961.14	946.92	931.7	916.1	899.6
298.15 K, 30500 kPa	1021.6	1010	998.9	987.2	974.9	961.68	947.48	932.2	916.7	900.2
298.15 K, 32530 kPa	1022.5	1011	999.9	988.3	976	962.77	948.6	933.4	917.9	901.4
298.15 K, 34550 kPa	1023.5	1012	1000.9	989.3	977	963.83	949.68	934.5	919	902.6
298.15 K, 36580 kPa	1024.5	1013	1001.9	990.3	978	964.89	950.78	935.6	920.2	903.8
298.15 K, 38600 kPa	1025.5	1013.9	1002.9	991.3	979	965.93	951.82	936.7	921.2	904.9
298.15 K, 39620 kPa	1025.9	1014.4	1003.4	991.8	979.6	966.46	952.38	937.2	921.8	905.2
308.15 K, 100 kPa	996.8	984.8	973.6	961.5	948.7	934.98	920.13	904.3	888.2	871
308.15 K, 2130 kPa	998	986	974.8	962.8	950	936.3	921.52	905.8	889.7	872.5
308.15 K, 4150 kPa	999.2	987.3	976.1	964.1	951.3	937.68	922.91	907.2	891.1	874.1
308.15 K, 6180 kPa	1000.4	988.5	977.3	965.3	952.6	939.04	924.29	908.7	892.6	875.6
308.15 K, 8210 kPa	1001.6	989.7	978.5	966.6	953.9	940.34	925.65	910.1	894	877.1
308.15 K, 10230 kPa	1002.8	990.9	979.8	967.8	955.2	941.64	927	911.4	895.5	878.6
308.15 K, 11250 kPa	1003.4	991.5	980.4	968.4	955.7	942.3	927.66	912.1	896.2	879.3
308.15 K, 12260 kPa	1003.9	992.1	981	969	956.4	942.94	928.33	912.8	896.9	880
308.15 K, 14290 kPa	1005.1	993.3	982.2	970.3	957.6	944.22	929.64	914.1	898.3	881.5
308.15 K, 16310 kPa	1006.2	994.4	983.3	971.4	958.9	945.46	930.91	915.4	899.6	882.9
308.15 K, 18340 kPa	1007.3	995.5	984.5	972.6	960	946.72	932.19	916.8	901	884.3
308.15 K, 20370 kPa	1008.4	996.7	985.6	973.8	961.2	947.92	933.45	918	902.3	885.6
308.15 K, 22390 kPa	1009.5	997.8	986.7	974.9	962.4	949.14	934.71	919.3	903.6	887
308.15 K, 24420 kPa	1010.6	998.9	987.8	976	963.6	950.33	935.93	920.6	904.9	888.3
308.15 K, 26450 kPa	1011.7	1000	988.9	977.2	964.7	951.5	937.14	921.8	906.2	889.7
308.15 K, 28470 kPa	1012.8	1001	990	978.3	965.9	952.65	938.32	923	907.4	891
308.15 K, 29490 kPa	1013.2	1001.6	990.6	978.8	966.4	953.24	938.92	923.6	908	891.6
308.15 K, 30500 kPa	1013.8	1002.1	991.1	979.4	967	953.82	939.51	924.2	908.7	892.2
308.15 K, 32530 kPa	1014.8	1003.2	992.2	980.5	968.1	954.96	940.68	925.4	909.9	893.5
308.15 K, 34550 kPa	1015.8	1004.2	993.2	981.5	969.2	956.07	941.83	926.6	911.1	894.7
308.15 K, 36580 kPa	1016.8	1005.2	994.3	982.6	970.2	957.16	942.97	927.7	912.3	896
308.15 K, 38600 kPa	1017.9	1006.2	995.3	983.6	971.3	958.24	944.07	928.9	913.4	897.2
308.15 K, 39620 kPa	1018.3	1006.7	995.8	984.1	971.9	958.83	944.64	929.5	914	897.8
